US9247747B2, “Fungicidal substituted 1-{2-[2-halo-4-(4-halogen-phenoxy)-phenyl]-2-alkoxy-2-alkynyl/alkenyl-ethyl}-1H-[1,2,4]triazole compounds” (BASF SE, priority 2011, dated 2016)

Assays:
Septoria tritici [1] = experiment: M1. Microtest: activity against leaf blotch on wheat caused by Septoria tritici (Septtr), micro titer plate growth; assay type: cell-based; conditions: 405 nm, 7 days after inoculation, relative growth vs active compound-free control (100%)
Description: Microtest The active compounds were formulated separately as a stock solution having a concentration of 10000 ppm in dimethyl sulfoxide. M1. Activity Against Leaf Blotch on Wheat Caused by Septoria tritici (Septtr) The stock solutions were mixed according to the ratio, pipetted onto a micro titer plate (MTP) and diluted with water to the stated concentrations. A spore suspension of Septoria tritici in an aqueous biomalt or yeast-bactopeptone-glycerine solution was then added. The plates were placed in a water vapor-saturated chamber at a temperature of 18° C. Using an absorption photometer, the MTPs were measured at 405 nm 7 days after the inoculation. The measured parameters were compared to the growth of the active compound-free control variant (100%) and the fungus-free and active compound-free blank value to determine the relative growth in % of the pathogens in the respective active compounds

Septoria tritici [2] = experiment: G1. Preventative control of leaf blotch on wheat caused by Septoria tritici (Septtr P1), green house; assay type: in vivo; conditions: 300 pm active substance, % diseased leaf area, untreated control 90%
Description: The spray solutions were prepared in several steps:
The stock solution were prepared: a mixture of acetone and/or dimethylsulfoxide and the wetting agent/emulsifier Wettol, which is based on ethoxylated alkylphenoles, in a relation (volume) solvent-emulsifier of 99 to 1 was added to 25 mg of the compound to give a total of 5 ml. Water was then added to total volume of 100 ml.
This stock solution was diluted with the described solvent-emulsifier-water mixture to the given concentration.
G1. Preventative Control of Leaf Blotch on Wheat Caused by Septoria tritici (Septtr P1)
Leaves of pot-grown wheat seedling were sprayed to run-off with an aqueous suspension of the active compound or their mixture, prepared as described. The plants were allowed to air-dry. The next day the plants were inoculated with an aqueous spore suspension of Septoria tritici. Then the trial plants were immediately transferred to a humid chamber at 18-22° C. and a relative humidity close to 100%. After 4 days the plants were transferred to a chamber with 18-22° C. and a relative humidity close to 70%. After 4 weeks the extent of fungal attack on the leaves was visually assessed as % diseased leaf area.

Botritis cinerea = experiment: G4. Preventative fungicidal control of Botritis cinerea on leaves of green pepper (Botrci P1), green house; assay type: in vivo; conditions: 300 pm active substance, % diseased leaf area, untreated control 90%
Description: 1) Green House The spray solutions were prepared in several steps: The stock solution were prepared: a mixture of acetone and/or dimethylsulfoxide and the wetting agent/emulsifier Wettol, which is based on ethoxylated alkylphenoles, in a relation (volume) solvent-emulsifier of 99 to 1 was added to 25 mg of the compound to give a total of 5 ml. Water was then added to total volume of 100 ml. This stock solution was diluted with the described solvent-emulsifier-water mixture to the given concentration. G4. Preventative fungicidal control of Botritis cinerea on leaves of green pepper (Botrci P1 Young seedlings of green pepper were grown in pots to the 4 to 5 leaf stage. These plants were sprayed to run-off with an aqueous suspension, containing the concentration of active ingredient or their mixture mentioned in the table below. The next day the plants were inoculated with a aqueous biomalt solution containing the spore suspension of Botritis cinerea. Then the plants were immediately transferred to a humid chamber. After 5 days at 22 to 24° C. and a relative humidity close to 100% the extent of fungal attack on the leaves was visually assessed as % diseased leaf area.

SMILES | Growth (%) at 0.002 ppm Septtr (Septoria tritici [1]) | Disease (%) at 300 pm Septtr P1 (Septoria tritici [2]) | Disease (%) at 300 pm Botrci P1 (Botritis cinerea)
C#CC(Cn1cncn1)(OC)c1ccc(Oc2ccc(Cl)cc2)cc1Cl (stereo not drawn) [I-1] | 14% | – | –
C=CC(Cn1cncn1)(OC)c1ccc(Oc2ccc(Cl)cc2)cc1Cl (stereo not drawn) [I-7, 1-[2-[2-chloro-4-(4-chlorophenoxy)phenyl]-2-methoxy-but-3-enyl]-1,2,4-triazole] | – | 0% | –
C=CCOC(C=C)(Cn1cncn1)c1ccc(Oc2ccc(Cl)cc2)cc1Cl (stereo not drawn) [I-8] | – | 0% | –
COC(Cn1cncn1)c1ccc(Oc2ccc(Cl)cc2)cc1Cl (stereo not drawn) | 72% | 40% | –
C=CCOC(Cn1cncn1)c1ccc(Oc2ccc(Cl)cc2)cc1Cl (stereo not drawn) | – | 30% | 30%
C=CCOC(C#CC)(Cn1cncn1)c1ccc(Oc2ccc(Cl)cc2)cc1Cl (stereo not drawn) [I-12] | – | 0% | 0%
